ChEMBL document CHEMBL6127139, “Lysine-Targeted Covalent Inhibitors of PI3Kδ Synthesis and Screening by In Situ Interaction Upgradation” (J Med Chem, 2024)

Experiments:
[1] = Chemical reactivity of the compound with N-Boc-Lysine assessed as half-life at 1 uM by HPLC analysis; assay type: physicochemical; settings: incubation with N-Boc-Lysine
[2] = Growth inhibition of PI3Kdelta-overexpressing human Pfeiffer cells incubated for 72 hrs by MTT assay; assay type: functional
[3] = target: T1, Phosphatidylinositol 4,5-bisphosphate 3-kinase catalytic subunit delta isoform (Homo sapiens, UniProt O00329); experiment: Inhibition of recombinant PI3Kdelta (unknown origin) using PIP2:3PS as substrate preincubated for 20 mins followed by ATP addition and measured after 1 hrs by ADP-Glo reagent based assay
T1 sequence (O00329 whole entry): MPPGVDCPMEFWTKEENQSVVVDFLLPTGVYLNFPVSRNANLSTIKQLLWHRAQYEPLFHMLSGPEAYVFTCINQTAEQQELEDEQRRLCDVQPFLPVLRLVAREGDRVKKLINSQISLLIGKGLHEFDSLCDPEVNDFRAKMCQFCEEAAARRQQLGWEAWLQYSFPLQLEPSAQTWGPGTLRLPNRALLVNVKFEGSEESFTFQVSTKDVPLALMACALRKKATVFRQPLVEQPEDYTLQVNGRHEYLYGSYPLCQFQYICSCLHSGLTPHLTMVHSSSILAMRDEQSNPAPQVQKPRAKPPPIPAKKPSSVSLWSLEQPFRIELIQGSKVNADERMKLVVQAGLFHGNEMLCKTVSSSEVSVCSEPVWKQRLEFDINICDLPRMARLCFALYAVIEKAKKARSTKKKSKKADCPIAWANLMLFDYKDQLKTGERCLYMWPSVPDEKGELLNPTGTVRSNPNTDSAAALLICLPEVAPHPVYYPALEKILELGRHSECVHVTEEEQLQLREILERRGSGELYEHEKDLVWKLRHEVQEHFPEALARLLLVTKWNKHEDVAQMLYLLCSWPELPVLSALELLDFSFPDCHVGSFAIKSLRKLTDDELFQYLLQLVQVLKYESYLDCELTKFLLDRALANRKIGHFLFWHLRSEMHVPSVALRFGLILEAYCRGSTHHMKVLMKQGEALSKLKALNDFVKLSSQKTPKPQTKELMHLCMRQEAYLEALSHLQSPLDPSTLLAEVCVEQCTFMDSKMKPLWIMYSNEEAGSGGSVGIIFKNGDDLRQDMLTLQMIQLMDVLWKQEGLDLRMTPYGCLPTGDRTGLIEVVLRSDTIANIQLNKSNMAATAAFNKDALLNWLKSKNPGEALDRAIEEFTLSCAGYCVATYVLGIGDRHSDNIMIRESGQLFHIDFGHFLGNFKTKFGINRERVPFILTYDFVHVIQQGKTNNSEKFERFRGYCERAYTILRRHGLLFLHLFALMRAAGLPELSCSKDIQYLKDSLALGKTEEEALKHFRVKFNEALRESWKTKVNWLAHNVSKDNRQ

[4] = target: Phosphatidylinositol 4,5-bisphosphate 3-kinase catalytic subunit alpha isoform (Homo sapiens, UniProt P42336); experiment: Inhibition of recombinant PI3Kalpha (unknown origin) using PIP2:3PS as substrate preincubated for 20 mins followed by ATP addition and measured after 1 hrs by ADP-Glo reagent based assay
[5] = Growth inhibition of PI3Kdelta-overexpressing human SU-DHL-6 cells incubated for 72 hrs by MTT assay; assay type: functional

Sequence of Phosphatidylinositol 4,5-bisphosphate 3-kinase catalytic subunit alpha isoform (P42336 whole entry, canonical isoform): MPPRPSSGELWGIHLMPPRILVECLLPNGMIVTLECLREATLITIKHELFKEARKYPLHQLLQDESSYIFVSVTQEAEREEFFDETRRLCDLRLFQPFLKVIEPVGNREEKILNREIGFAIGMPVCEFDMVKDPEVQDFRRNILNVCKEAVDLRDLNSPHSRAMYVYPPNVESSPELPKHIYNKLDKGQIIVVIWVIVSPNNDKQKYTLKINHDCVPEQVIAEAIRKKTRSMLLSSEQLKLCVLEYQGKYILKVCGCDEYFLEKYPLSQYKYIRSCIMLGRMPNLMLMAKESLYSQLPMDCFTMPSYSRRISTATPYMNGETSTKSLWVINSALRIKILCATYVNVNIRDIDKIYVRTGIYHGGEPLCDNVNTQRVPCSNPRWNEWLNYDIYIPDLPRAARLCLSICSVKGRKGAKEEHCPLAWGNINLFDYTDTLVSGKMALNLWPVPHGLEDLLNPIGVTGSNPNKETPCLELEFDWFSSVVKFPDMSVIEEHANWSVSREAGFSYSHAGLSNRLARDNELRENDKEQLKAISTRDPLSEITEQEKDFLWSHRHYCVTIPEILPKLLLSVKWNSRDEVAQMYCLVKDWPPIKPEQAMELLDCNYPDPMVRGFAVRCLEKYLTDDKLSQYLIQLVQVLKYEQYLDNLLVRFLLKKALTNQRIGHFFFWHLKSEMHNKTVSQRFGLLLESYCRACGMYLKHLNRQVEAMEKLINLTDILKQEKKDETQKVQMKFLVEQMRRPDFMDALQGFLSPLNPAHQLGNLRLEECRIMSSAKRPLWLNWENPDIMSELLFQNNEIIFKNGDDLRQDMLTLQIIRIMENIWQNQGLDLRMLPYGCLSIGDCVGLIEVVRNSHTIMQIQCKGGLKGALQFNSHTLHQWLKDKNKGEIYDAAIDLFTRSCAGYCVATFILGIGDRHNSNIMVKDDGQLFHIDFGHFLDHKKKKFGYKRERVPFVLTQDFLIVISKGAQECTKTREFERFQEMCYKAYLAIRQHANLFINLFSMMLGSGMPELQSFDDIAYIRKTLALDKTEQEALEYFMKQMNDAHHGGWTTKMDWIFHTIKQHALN

Row | Compound | half-life at 1 µM [1] [min] | GI50 [2] [nM] | IC50 [3] [nM] | IC50 [4] [nM] | GI50 [5] [nM]
1 | COc1ncc(-c2ccc3ncnc(N[C@H]4CCN(C(=O)C5CCOCC5)C4)c3n2)cc1C(=O)Oc1ccc(C(F)(F)F)cc1 | 1.7 | 1260 | 1.01 | 93.3 | 96
2 | COc1ccc(OC(=O)c2cc(-c3ccc4ncnc(N[C@H]5CCN(C(=O)C6CCOCC6)C5)c4c3)cnc2OC)cc1 | 387 | 225 | 2.02 | 56.5 | 6
3 | COc1ncc(-c2ccc3ncnc(N[C@H]4CCN(C(=O)C5CCOCC5)C4)c3c2)cc1C(=O)Oc1ccc(Cl)cc1 | 12.7 | 276 | 0.79 | > 1000 | 16
4 | C=CC(=O)Nc1cc(-c2ccc3ncnc(N[C@H]4CCN(C(=O)C5CCOCC5)C4)c3c2)cnc1OC | > 1440 | 1520 | 8.59 | – | 710
5 | COc1ncc(-c2ccc3ncnc(N[C@H]4CCN(C(=O)C5CCOCC5)C4)c3c2)cc1C(=O)Oc1ccc(C#N)cc1 | < 1 | 479 | 4.53 | > 1000 | 27
6 | COc1ncc(-c2ccc3ncnc(N[C@H]4CCN(C(=O)C5CCOCC5)C4)c3c2)cc1C(=O)Oc1ccc(Cl)cc1Cl | 1.2 | 346 | 1.5 | 347 | 142
7 | COc1ncc(-c2ccc3ncnc(N[C@H]4CCN(C(=O)C5CCOCC5)C4)c3n2)cc1C(=O)Oc1ccc(C)cc1 | 326 | 139 | 6.11 | 13.5 | 8
8 | COc1ncc(-c2ccc3ncnc(N[C@H]4CCN(C(=O)C5CCOCC5)C4)c3c2)cc1C(=O)Oc1ccc(F)cc1F | 3.1 | 433 | 1.47 | 39.3 | 64
9 | C#Cc1ccc(-c2ccc3ncnc(N[C@H]4CCN(C(=O)C5CCOCC5)C4)c3n2)cc1C=O | 2.1 | 2320 | 1.48 | – | 430
10 | COc1ncc(-c2ccc3ncnc(N[C@H]4CCN(C(=O)C5CCOCC5)C4)c3n2)cc1C(=O)Oc1ccc(C#N)cc1 | < 1 | 425 | 1.86 | 51.4 | 32
11 | COc1ncc(-c2ccc3ncnc(N[C@H]4CCN(C(=O)C5CCOCC5)C4)c3c2)cc1C=O | 2.1 | 200 | 48.8 | – | 170
12 | COc1ncc(-c2ccc3ncnc(N[C@H]4CCN(C(=O)C5CCOCC5)C4)c3n2)cc1C(=O)Oc1ccc([N+](=O)[O-])cc1 | < 1 | 788 | 2.31 | 10.4 | 20
13 | COc1ncc(-c2ccc3ncnc(N[C@H]4CCN(C(=O)C5CCOCC5)C4)c3c2)cc1C(=O)Oc1ccc([N+](=O)[O-])cc1 | < 1 | 575 | 6.6 | 120 | 52
14 | COc1ncc(-c2ccc3ncnc(N[C@H]4CCN(C(=O)C5CCOCC5)C4)c3n2)cc1C(=O)Oc1ccc(Cl)cc1Cl | 1.1 | 752 | 1.42 | > 1000 | 53
15 | COC(=O)c1cc(-c2ccc3ncnc(N[C@H]4CCN(C(=O)C5CCOCC5)C4)c3c2)cnc1OC | > 1440 | 1240 | 1.59 | > 1000 | 50
16 | COc1ncc(-c2ccc3ncnc(N[C@H]4CCN(C(=O)C5CCOCC5)C4)c3n2)cc1CCl | 430 | 570 | 10.4 | – | 340
17 | COc1ncc(-c2ccc3ncnc(N[C@H]4CCN(C(=O)C5CCOCC5)C4)c3c2)cc1CCl | 420 | 490 | 24.2 | – | 310
18 | COc1ccc(OC(=O)c2cc(-c3ccc4ncnc(N[C@H]5CCN(C(=O)C6CCOCC6)C5)c4n3)cnc2OC)cc1 | 359 | 138 | 1.17 | 54.2 | 8
19 | COc1ncc(-c2ccc3ncnc(N[C@H]4CCN(C(=O)C5CCOCC5)C4)c3c2)cc1C(=O)Oc1ccc(C)cc1 | 353 | 137 | 2.47 | 145 | 3
20 | COc1ncc(-c2ccc3ncnc(N[C@H]4CCN(C(=O)C5CCOCC5)C4)c3n2)cc1C(=O)Oc1cccnc1 | 2.8 | 662 | 0.7 | 254 | 122
21 | COC(=O)c1cc(-c2ccc3ncnc(N[C@H]4CCN(C(=O)C5CCOCC5)C4)c3n2)cnc1OC | > 1440 | 447 | 1.21 | > 1000 | 42
22 | COc1ncc(-c2ccc3ncnc(N[C@H]4CCN(C(=O)C5CCOCC5)C4)c3n2)cc1C(=O)Oc1c(F)cc(F)cc1F | < 1 | 438 | 4.93 | > 1000 | 65
23 | COc1ncc(-c2ccc3ncnc(N[C@H]4CCN(C(=O)C5CCOCC5)C4)c3n2)cc1C(=O)Oc1ccc(F)cc1F | 3.2 | 420 | 3.19 | 29.8 | 31
24 | O=Cc1cc(-c2ccc3ncnc(N[C@H]4CCN(C(=O)C5CCOCC5)C4)c3c2)ccc1O | < 1 | 7780 | 6.46 | – | 320
25 | C#Cc1ccc(-c2ccc3ncnc(N[C@H]4CCN(C(=O)C5CCOCC5)C4)c3c2)cc1C=O | 1.9 | 4180 | 2.67 | – | 850
26 | C=CC(=O)Nc1cc(-c2ccc3ncnc(N[C@H]4CCN(C(=O)C5CCOCC5)C4)c3n2)cnc1OC | > 1440 | 1190 | 47.8 | – | 650
27 | O=Cc1cc(-c2ccc3ncnc(N[C@H]4CCN(C(=O)C5CCOCC5)C4)c3n2)ccc1O | < 1 | 5480 | 5.58 | – | 710
28 | COc1ncc(-c2ccc3ncnc(N[C@H]4CCN(C(=O)C5CCOCC5)C4)c3n2)cc1C=O | 2.3 | 310 | 93.5 | – | 350
